The target of series [1] is T1, EiCsm6 (Enterococcus italicus, UniProt E6LHV2).
T1 construct: gene csm6; recombinant from E. coli BL21 Star (DE3); N-terminal His6-TEV tag cut; full gene; homodimer, ligand site at the CARF domain interface
T1 sequence (E6LHV2 1-430): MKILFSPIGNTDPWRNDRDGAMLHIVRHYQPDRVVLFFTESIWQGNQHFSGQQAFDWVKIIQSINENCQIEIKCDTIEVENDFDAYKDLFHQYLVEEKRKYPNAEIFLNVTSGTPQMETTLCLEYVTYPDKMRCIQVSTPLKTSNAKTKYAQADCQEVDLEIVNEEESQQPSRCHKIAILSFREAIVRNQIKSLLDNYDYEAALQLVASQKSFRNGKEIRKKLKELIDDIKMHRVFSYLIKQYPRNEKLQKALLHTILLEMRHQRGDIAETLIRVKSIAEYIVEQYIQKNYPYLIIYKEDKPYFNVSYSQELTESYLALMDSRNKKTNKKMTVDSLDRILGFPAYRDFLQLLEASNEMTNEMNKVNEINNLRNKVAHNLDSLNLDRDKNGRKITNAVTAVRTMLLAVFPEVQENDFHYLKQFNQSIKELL
Put plainly: LC-MS degradation assay; RNaseAlert activation assay. As to conditions: 25 uM cA6 and 25 uM protein, 37 °C, 1 h; also allosteric activator at CARF domain. In kind it is biochemical.

The target in series [2] is T1, EiCsm6. Briefly: fluorogenic RNaseAlert ribonuclease assay, initial velocities, variable Hill fit. In kind it is biochemical. To be noted: 5 nM EiCsm6, 10 mM HEPES pH 7.5, 50 mM KCl; allosteric activator at CARF domain, read-out HEPN RNase.
For series [3], the target named is T1, EiCsm6. Briefly: X-ray crystal structure of the complex, […] Å. In kind it is binding. As to conditions: bound at the CARF domain dimer interface, one cFA6 per homodimer.
Series [4] deals with the molecule itself. Put plainly: crystal structure; EiCsm6 (120 uM) co-crystallised with the cA6 mimic cFA6 (288 uM); 100 mM HEPES pH 7.5, 1.6 M ammonium sulfate, 25 mM lithium perchlorate; space group P1, four homodimers in the asymmetric unit; 2.4 A.

Consider `Nc1ncnc2c1ncn2[C@@H]1O[C@@H]2COP(=O)(O)O[C@H]3[C@@H](O)[C@H](n4cnc5c(N)ncnc54)O[C@@H]3COP(=O)(O)O[C@H]3[C@@H](O)[C@H](n4cnc5c(N)ncnc54)O[C@@H]3COP(=O)(O)O[C@H]3[C@@H](O)[C@H](n4cnc5c(N)ncnc54)O[C@@H]3COP(=O)(O)O[C@H]3[C@@H](O)[C@H](n4cnc5c(N)ncnc54)O[C@@H]3COP(=O)(O)O[C@H]3[C@@H](O)[C@H](n4cnc5c(N)ncnc54)O[C@@H]3COP(=O)(O)O[C@H]2[C@H]1O` [cA6], for which the “LC-MS degradation assay; RNaseAlert activation assay” value in series [1] is on record as “revealing that cA6 was efficiently degraded to yield a mixture of products”.
`Nc1ncnc2c1ncn2[C@@H]1O[C@@H]2COP(=O)(O)O[C@H]3[C@@H](F)[C@H](n4cnc5c(N)ncnc54)O[C@@H]3COP(=O)(O)O[C@H]3[C@@H](F)[C@H](n4cnc5c(N)ncnc54)O[C@@H]3COP(=O)(O)O[C@H]3[C@@H](F)[C@H](n4cnc5c(N)ncnc54)O[C@@H]3COP(=O)(O)O[C@H]3[C@@H](F)[C@H](n4cnc5c(N)ncnc54)O[C@@H]3COP(=O)(O)O[C@H]3[C@@H](F)[C@H](n4cnc5c(N)ncnc54)O[C@@H]3COP(=O)(O)O[C@H]2[C@H]1F` [cFA6, 2’-,2’’-,2’’’,2’’’’,2’’’’’,2’’’’’’-hexadeoxy-2’-,2’’,2’’’,2’’’’,2’’’’’,2’’’’’’-hexafluoro-cyclic hexaadenosine monophosphate]: the EC50 in series [2] is 170 nM. The “X-ray crystal structure of the complex, 2.4 Å” value in series [3] was “we co-crystallized EiCsm6 with cFA6 and determined the structure of the complex”.

B1: Enterococcus italicus Csm6 (EiCsm6), wild type (enzyme)
chain: T1 sequence (E6LHV2 1-430)
notes: Csm6 ribonuclease (CARF and HEPN domains) of the type III CRISPR-Cas system of Enterococcus italicus DSM-15952; gene amplified from genomic DNA; Cloned into the 1B vector (Addgene 29653): N-terminal hexahistidine tag followed by a TEV site, removed with TEV protease; Crystallised with the small-molecule ligand cFA6 (PDB 6TUG) or with cA6; also called WT EiCsm6; source: E. coli BL21 Star (DE3), …
For the molecule B1, the “stoichiometry N” value in series [4] was found to be 2.

Source of the values: article PMC7101355, “Activation and self-inactivation mechanisms of the cyclic oligoadenylate-dependent CRISPR ribonuclease Csm6” (Nature Communications, 2020).
